Tested on: T1, RcLipase
T1 construct: catalytic Ser146, Asp211, His276; oxyanion Thr63, Leu147
Assay: hydrolysis kinetics, Michaelis-Menten non-linear regression
Type: biochemical, Ricinus communis
Settings: 20 mM Tris-HCl pH 8.0, 40 °C; substrate 0-1 mM

Compound | Km
CCCCCCCCCCCCCCCC(=O)OCC(COC(=O)CCCCCCCCCCCCCCC)OC(=O)CCCCCCCCCCCCCCC [Tripalmitin] | 170 ± 10 µM
CCCCCCCC/C=C\CCCCCCCC(=O)OCC(COC(=O)CCCCCCC/C=C\CCCCCCCC)OC(=O)CCCCCCC/C=C\CCCCCCCC [Triolein] | 210 ± 10 µM

— PMC7994567, “Characterization of a novel sn1,3 lipase from Ricinus communis L. suitable for production of oleic acid-palmitic acid-glycerol oleate” (Scientific Reports, 2021)
